# Experiments:
# [1] = system: human prostate cancer ALVA-41 cells; experiment: survival rate of cells (Cell Counting Kit-8), ALVA-41 cells; assay type: cell-based; conditions: ALVA-41 cells, 20 hours, neutral pH, 10-100 μg/ml
# Method: (§1) The survival rate of cells was measured by Cell Counting Kit-8 in accordance with a manufacturer's manual. The method will be described briefly as follows. A 96-well (each 100 μl) plate was inoculated with cells (1×10^4 cells) and incubated for 24 hours, and the cells were incubated in a non-serum culture medium Opti-MEM together with a given concentration of each cathepsin purified from rat stomach (References #27 and #60-#62). Thereafter, the kit reagent (10 μl) was added to each well and the wells were incubated for another 1 hour. After incubation, each well was measured at the absorbance of 450 nm with a microplate reader.
# In the figure, an indicating bar scale represents 50 μm. […] In the figure, an indicating bar scale represents 50 μm.
# In this experiment, the survival rate of the ALVA-41 cells was measured by incubating the cells with cathepsin E of a given concentration in the presence or absence of pepstatin A (100 μM) at 37° C. and pH 7.4 for 20 hours. The data is represented as a percentage with respect to the value for non-treated cell group. The data were obtained as an average value±SD from the data obtained by four separate experiments. […] In this experiment, the HEK293 cells were incubated together with a given concentration of natural cathepsin E, wild-type recombinant and the active site mutant (D98A/D283A) at 37° C. and pH 7.4 for 20 hours. The survival rate of the cells was measured and represented as a percentage with respect to the value of the non-treated cell group. The data represents an average value±SD from the data obtained by four separate experiments. In the value, *p<0.001 is a corresponding value for the cells treated with the mutant. […] In this experiment, ALVA-41 cells were treated solely with cathepsin E of a given concentration in the same manner as for FIG. 2A and the culture supernatant was recovered, followed by centrifuging to remove the precipitate and transferring a portion ([…]) of the supernatant to a freshly prepared culture of ALVA-41 cells. Thereafter, the cells were incubated at 37° C. and pH 7.4 for 20 hours in the absence (black round mark) or presence (white round mark) of pepstatin A (100 μM) and measured for the survival rate of the cells. The cell survival rate is represented as a percentage with respect to the value of the cells treated with the culture supernatant of the ALVA-41 cells treated with physiological saline. The data is represented as an average value±SD from the data obtained by four separate experiments. […] The cathepsin E activity (on the upper panel) and the cytotoxic activity (on the lower panel) of each column fraction were determined using freshly prepared ALVA-41 cells and a cathepsin E-specific substrate. The cell survival rate of each fraction treated with the protein at a given final concentration is represented as a percentage with respect to the value of the cells treated with physiological saline and as an average value±SD from the data obtained by four separate experiments. The cathepsin E activity is represented as a percentage of the total activity in the culture supernatant, and the data is represented as an average±SD from the data obtained by three separate experiments.
# [2] = system: human prostate epithelium (PrE) cells; experiment: cell survival rate of normal human prostate epithelial cells; assay type: cell-based; conditions: 100 μg/ml, 37° C., pH 7.4, 20 hours
# Method: as §1
# In this assay, the cells to be tested were incubated to a ˜80% confluent state and then together with cathepsin E (100 μg/ml) or physiological saline at 37° C. and pH 7.4 for 20 hours, followed by measurements for the cell survival rate by a colorimetric assay. The cell survival rate is represented as a percentage of a corresponding value to the cells treated with physiological saline, and the data is represented as an average value±SD from the data obtained by four separate experiments. […] As an alternative method, a culture medium of each cell line was immunoblot-analyzed using an anti-OPG antibody. […] Thereafter, the immunoblot was analyzed for its concentration in order to determine a quantity of a soluble TRAIL trimer. […]
# [3] = system: ALVA-41 cells tumor in nude mice; experiment: tumor growth in nude mice transplanted subcutaneously with ALVA-41 cells; assay type: in vivo
# Method: In order to study the growth of primary tumor, 1 ml of PBS solution containing ALVA-41 cells (5×10^6 cells) was injected subcutaneously into the right flank of a male nude mouse. Separately, a solution of mouse melanoma B16 cells (1×10^6 cells) was likely injected subcutaneously into the right flank of an inbred wild-type (WT) mouse, CatE^−/− mouse and CatE^Tg mouse. The size of the tumor was measured with a caliper, and the tumor volume was calibrated by ab^2/2 (where a and b represent a maximum dimension of the central section and a minimum dimension of the central section, respectively). As the size of the heterograft of the ALVA-41 cell reached approximately 100 mm^3 (approximately at day 12 after injection), animals were divided into two groups of each 5 animals. To the two animal groups, respectively, purified cathepsin E (200 μg per kg of body weight per day) and physiological saline were injected into the central portion of the tumor for 16 days. For a measurement for the tumor weight and an immunohistochemical study, […] reached approximately 400 mm^3. For a study on metastasis, melanoma B16 cells (2×10^5 cells in 50 μl of PBS solution) was injected into a tail vein of a Wt mouse, CatE^−/− mouse and CatE^Tg. The mice were then anesthetized at day 22 after injection and killed with a lethal amount of diethylether, followed by removing the lungs and counting the number of black metastasis colonies.
# As the tumor volume reached ˜[…] after subcutaneous injection, cathepsin E (200 μg/kg/day) or physiological saline was subcutaneously injected into the central portion of the tumor for 16 days. […] Data are represented as an average value±SD of the value obtained from three mice per each group. […] The TUNEL assay was carried out by reacting with diaminobenzidine and counter-staining tissue slices with 1% methyl green. Data represent the result obtained from five mice per group. In the figure, the lower image is an expanded version of the upper image. In the figure, a bar scale represents 50 μm.
substance,measurement,setting,value
cathepsin E,number of living cells,[1],decreases the number of survived carcinoma cells in a dose-dependent fashion
same,influence upon survival and morphology of normal PrE cells,[2],little exerted influences upon the survival and morphology
same,growth of tumor compared to saline control,"[3]; 200 μg/kg daily for 16 days into central portion of tumor, start at approx. 100 mm^3",grown in a remarkably controlled manner
same,weight of the tumor versus control group,"[3]; 400 μg/kg once per day for 10 days, start at approx. 400 mm^3",significantly lower
same,effect of suppressing the tumor,[3]; daily dose of 30 μg/kg or lower,little recognized
same,effect upon regression of tumor,[3]; daily dose of 50 μg/kg,rather decreased
same,toxicity toward normal tissues and cells,[3]; nude mice administered cathepsin E,no effect upon toxicity toward normal tissues and cells can be recognized at all
same,apoptosis cells in tumor by TUNEL stain,[3]; tumors after 10 days administration,a number of the apoptosis cells were observed

# Source: patent publication US20100047227A1, “NOVEL ANTICANCER CATHEPSIN FORMULATIONS AND ANTICANCER AGENT FOR USE IN COMBINED ANTICANCER THERAPY” (priority 2006, published 2010)
